Consider five molecules from patent publication US20240124460A1, “METHODS AND COMPOSITIONS FOR TARGETED PROTEIN DEGRADATION” (Ranok Therapeutics (Hangzhou) Co. Ltd., priority 2020, published 2024).

The test system of assay [1] is U-87 MG human glioblastoma. The assay is described as follows: U87 MG CCK-8 proliferation assay. The class given is cell-based. Conditions: Homo sapiens, U-87 MG, 72 h, U-87 MG cells, read-out: U87MG CCK-8. The essentials:
(§1)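 Inhibition is derived from CCK-8 absorbance of compound-treated cells relative to DMSO-treated cells, after subtracting a cell-free medium/DMSO background. Test concentrations span 20 μM down to 1.02 nM in 3-fold steps, and lines are cultured as ATCC recommends.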

Assay [2] has as its system MV-4-11 human acute myeloid leukemia. The assay is described as follows: MV-4-11 CCK-8 proliferation assay. Conditions: Homo sapiens, MV4-11; MV-4-11 cells, 72 hr. It counts as cell-based. The essentials: as §1
Background: Tetrazolium dyes change colour on reduction, which living cells bring about.

Assay [3] concerns the target T1, HSP90α protein (Homo sapiens, UniProt P07900).
T1 construct: purchased BPS Bioscience #50298
The assay is described as follows: HSP90α-binding FP (BODIPY) assay. Conditions: FP competition with BODIPY-labeled RNK04010. In outline:
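Fluorescence polarization measured competition with N-terminal human HSP90α, using either FITC-geldanamycin or BODIPY-labelled triazolone RNK04010 as tracer (5 nM final each). Compounds were tested in 2.5-fold dilutions from 20 μM to 5.2 nM, with incubation at 25 °C for 120 min (FITC) or 300 min (BODIPY).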

In general, IC50 refers to the midpoint of a concentration-inhibition curve. Higher therefore signals a need for much substance. For the molecule `CCOc1cc(N2CCC(C(=O)N3CCC(CN4CCN(Cc5ccc(-n6c(C(=O)NCC(F)(F)F)nnc6-c6cc(C)c(O)cc6O)cc5)CC4)CC3)CC2)ccc1Nc1ncc2c(n1)N(S(C)(=O)=O)c1ccccc1C(=O)N2C` [Compound 081, 5-(2,4-dihydroxy-5-methylphenyl)-4-(4-((4-((1-(1-(3-ethoxy-4-((5-methyl-11-(methylsulfonyl)-6-oxo-6,11-dihydro-5H-benzo[e]pyrimido[5,4-b][1,4]diazepin-2-yl)amino)phenyl)piperidine-4-carbonyl)piperidin-4-yl)methyl)piperazin-1-yl)methyl)phenyl)-N-(2,2,2-trifluoroethyl)-4H-1,2,4-triazole-3-carboxamide], the EC50 in assay [1] is 100 to 1000 nM; in assay [2] it was below 100 nM. In assay [3], this molecule had a half-maximal inhibitory concentration (IC50) below 100 nM.

Regarding `CCOc1cc(N2CCC(C(=O)N[C@H](C)c3ccc(CN4CCC(Cc5ccc(-n6c(O)nnc6-c6cc(C(C)C)c(O)cc6O)cc5)CC4)cc3)CC2)ccc1Nc1ncc2c(n1)N(C)c1ccccc1C(=O)N2C` [Compound 045, (R)—N-(1-(4-((4-(4-(3-(2,4-dihydroxy-5-isopropylphenyl)-5-hydroxy-4H-1,2,4-triazol-4-yl)benzyl)piperidin-1-yl)methyl)phenyl)ethyl)-1-(4-((5,11-dimethyl-6-oxo-6,11-dihydro-5H-benzo[e]pyrimido[5,4-b][1,4]diazepin-2-yl)amino)-3-ethoxyphenyl)piperidine-4-carboxamide], the EC50 in assay [1] was 100 to 1000 nM; in assay [2], below 100 nM. Also, the half-maximal inhibitory concentration (IC50) in assay [3] was in the range of 100 to 1000 nM.

In the case of `CCOc1cc(N2CCC(C(=O)N3CCN(Cc4ccc(-n5c(O)nnc5-c5cc(C(C)C)c(O)cc5O)cc4C(F)(F)F)CC3)CC2)ccc1Nc1ncc2c(n1)N(C)c1ccccc1C(=O)N2C` [Compound 046, 2-((4-(4-(4-(4-(3-(2,4-dihydroxy-5-isopropylphenyl)-5-hydroxy-4H-1,2,4-triazol-4-yl)-2-(trifluoromethyl)benzyl)piperazine-1-carbonyl)piperidin-1-yl)-2-ethoxyphenyl)amino)-5,11-dimethyl-5,11-dihydro-6H-benzo[e]pyrimido[5,4-b][1,4]diazepin-6-one], the EC50 in assay [1] was 100 to 1000 nM; in assay [2], below 100 nM. Moreover, the IC50 in assay [3] lay within 100 to 1000 nM.

As to `CCOc1cc(N2CCC(C(=O)N3CCC(CN4CCN(C(=O)O[C@H]5CC[C@H](Nc6cc(-n7nc(C(F)(F)F)c8c7CC(C)(C)CC8=O)ccc6C(N)=O)CC5)CC4)CC3)CC2)ccc1Nc1ncc2c(n1)N(S(C)(=O)=O)c1ccccc1C(=O)N2C` [Compound 117, (1R,4R)-4-((2-carbamoyl-5-(6,6-dimethyl-4-oxo-3-(trifluoromethyl)-4,5,6,7-tetrahydro-1H-indazol-1-yl)phenyl)amino)cyclohexyl 4-((1-(1-(3-ethoxy-4-((5-methyl-11-(methylsulfonyl)-6-oxo-6,11-dihydro-5H-benzo[e]pyrimido[5,4-b][1,4]diazepin-2-yl)amino)phenyl)piperidine-4-carbonyl)piperidin-4-yl)methyl)piperazine-1-carboxylate], the EC50 in assay [1] is above 1000 nM; in assay [2], 100 to 1000 nM. In addition, in assay [3], the IC50 was above 1000 nM.

For the molecule `CCOc1cc(N2CCC(C(=O)N3CCC(CN4CCN(Cc5ccc(-n6c(C(=O)NC(CC)CC)nnc6-c6cc(CC)c(O)cc6O)cc5)CC4)CC3)CC2)ccc1Nc1ncc2c(n1)N(S(C)(=O)=O)c1ccccc1C(=O)N2C` [Compound 084, 4-(4-((4-((1-(1-(3-ethoxy-4-((5-methyl-11-(methylsulfonyl)-6-oxo-6,11-dihydro-5H-benzo[e]pyrimido[5,4-b][1,4]diazepin-2-yl)amino)phenyl)piperidine-4-carbonyl)piperidin-4-yl)methyl)piperazin-1-yl)methyl)phenyl)-5-(5-ethyl-2,4-dihydroxyphenyl)-N-(pentan-3-yl)-4H-1,2,4-triazole-3-carboxamide], the figures for the EC50 in assay [1] and in assay [2] were 100 to 1000 nM and below 100 nM, respectively. In assay [3], the IC50 lay in the range of 100 to 1000 nM.
